# Entries after “also recorded” stand apart in the source; their conditions may differ.
# Experiments:
# [1] = test system: human prostate cancer DU145 cells; test: Selective inhibitory activity on hypoxic cancer cell growth (MTT, hypoxic conditions 1% O2); type: cell-based; conditions: for selective inhibitory activity on hypoxic cell growth: 24 h, MTT
# Method: (§1) Analog-k5, which is represented by formula (II), and analog-k6, which is represented by formula (III), were used as test compounds and furospinosulin-1 was used as the control compound. The test compounds and the control compound were separately dissolved in EtOH, and the respective solutions were prepared at predetermined concentrations. The cells used were human prostate cancer DU145 cells. Analog-k6 was synthesized according to the method described in Example 1 for synthesis of analog-k5 except for using 3-bromothiophene instead of 3-bromofuran.
# To each well of 96-well multiwell plates, 200 μL (1×10^4 cells/well) of a DU145 cell suspension was added, and preculture was performed under conditions of 5% CO2 and 37° C. for 4 hours. Then, the multiwell plates were placed in a hypoxic culture chamber (manufactured by Mitsubishi Gas Chemical Company, Inc.) of 1% O2, 5% CO2 and 94% N2 (hypoxic conditions) and culture was performed for 12 hours. Then, the test compound solutions in EtOH were added to the corresponding wells in a volume of 2 μL per well, and culture was further continued under hypoxic conditions for 24 hours. After 24 hours of culture, MTT (3-(4,5-dimethylthiazol-2-yl)-2,5-diphenyltetrazolium bromide) reagent prepared at 200 μg/mL was added in a volume of 50 μL per well, and culture was performed under conditions of 5% CO2 and 37° C. for 3 hours. Next, after removal of the culture medium, the resulting MTT formazan was extracted with 200 μL of DMSO per well. The amount of the formazan dye was quantified by a colorimetric method (OD 560 nm) and the ratio of growth inhibition was calculated.
# (§2) Analog-f9, which is represented by formula (VI), and analog-k13, which is represented by formula (CI), were used as the test compounds, and both were evaluated for the selective inhibitory activity on hypoxic cancer cell growth according to the same method as described in Example 5.
# [2] = test system: Mouse sarcoma S180 cells; test: Antitumor activity in mouse cancer cell transplant model; type: in vivo; conditions: ddY mice; for tumor weight, % of that of the control group / weight loss, diarrhea, visual abnormalities in organs: once every two days, 7 times; for tumor weight, % of that of the control group: S180; for weight loss, diarrhea, visual abnormalities in organs: all dose groups; for weight loss, diarrhea, visual abnormalities in organs / antitumor activity: oral; for antitumor activity: S180 transplant model
# Method: A suspension of the test compound analog-k5 was prepared at predetermined concentrations in 1% CMC. The vehicle (1% CMC) was administered to the control group.
# Mouse sarcoma S180 cells were prepared as a suspension of the density of 1×10^7 cells/mL in a serum-free RPMI culture medium and the suspension was kept on ice. Then, 100 μL (1×10^6 cells) each of the cell suspension was subcutaneously inoculated to the ventral side in female ddY mice (5-week old, six mice/group) with an injection needle of 23G. The mice were maintained for one week for engraftment of the […]. The test compound (10 mg/kg, 25 mg/kg and 50 mg/kg) or the vehicle (1% CMC) was orally administered on a schedule of once every two days, 7 times in total. The antitumor activity was evaluated as follows: one day after the final administration, tumors were isolated and weighed and then the tumor weight was compared between the test compound administration groups and the control group. Significance analysis was performed using a Dunnett's test at a significance level of 5%.
# Analog-f9, which is represented by formula (VI), and analog-k13, which is represented by formula (CI), were used as the test compounds, and both were evaluated for the antitumor activity in a mouse cancer cell transplant model according to the same method as described in Example 6. However, the number of mice per group was changed to four, and the doses of test compounds were changed to 3 mg/kg, 10 mg/kg and 25 mg/kg.
# [3] = test system: human prostate cancer DU145 cells; test: Inhibitory activity on normoxic cell growth (MTT); type: cell-based; conditions: for inhibitory activity on normoxic cell growth as compared with furospinosulin-1: in a high dose; for inhibitory activity on normoxic cell growth as compared with furospinosulin-1 / inhibitory activity on normoxic cell growth: DU145
# Method: as §1
# Meanwhile, the inhibitory activity of the test compounds on normoxic cell growth was measured in the following manner. To each well of 96-well multiwell plates, 200 μL (1×10^4 cells/well) of a DU145 cell suspension was added, and culture was performed under conditions of 5% CO2 and 37° C. for 12 hours. Then, the test compound solutions in EtOH were added to the corresponding wells in a volume of 2 μL per well, and culture was further continued under the same conditions for 24 hours. After 24 hours of culture, as is the case in hypoxic conditions, the MTT reagent was added and finally the ratio of growth inhibition was calculated.
# as §2
# [4] = test system: human prostate cancer DU145 cells; conditions: Non Patent Literature 4; cited from earlier work
# [5] = test system: Mouse sarcoma S180 cells; conditions: mice subcutaneously inoculated with S180 cells; Non Patent Literature 4; cited from earlier work
# [6] = test system: insulin-like growth factor 2 (IGF-2); conditions: mechanism of action; Non Patent Literature 4; cited from earlier work
# [7] = at 1000 μM, DU145, hypoxic (1% O2) vs normoxic
structure (smiles),measurement,setting,value
CC(C)=CCC/C(C)=C/CC/C(C)=C/CC/C=C/CCc1ccoc1 [analog-k5],selective inhibitory activity on hypoxic cell growth,[1]; [7],showed selective inhibitory activity on hypoxic cell growth
same,"tumor weight, % of that of the control group",[2]; 10 mg/kg oral,70%
same,"tumor weight, % of that of the control group",[2]; 25 mg/kg oral,41%
same,"tumor weight, % of that of the control group",[2]; 50 mg/kg oral,28%
same,"weight loss, diarrhea, visual abnormalities in organs",[2],"In no administration groups, weight loss or diarrhea, or visual abnormalities in organs of the mice were observed"
same,antitumor activity,[2],showed marked antitumor activity
same,inhibitory activity on normoxic cell growth as compared with furospinosulin-1,[3],lower inhibitory activity on normoxic cell growth
C#CCC/C(C)=C/CC/C(C)=C/CC/C(C)=C/CC/C(C)=C/CCc1ccoc1 [analog-k13],selective inhibitory activity on hypoxic cell growth,[1]; [7],showed selective inhibitory activity on hypoxic cell growth
same,selective inhibition of hypoxic cell growth compared with furospinosulin-1,"[1]; entire range of tested concentrations, DU145",stronger than that of furospinosulin-1
same,"tumor weight, % of that of the control group",[2]; 3 mg/kg oral,70%
same,"tumor weight, % of that of the control group",[2]; 10 mg/kg oral,41%
same,"tumor weight, % of that of the control group",[2]; 25 mg/kg oral,28%
same,"weight loss, diarrhea, visual abnormalities in organs",[2],"In no administration groups, regardless of the kind of test compound, weight loss or diarrhea, or visual abnormalities in organs of the mice were observed"
same,antitumor activity,[2],showed marked antitumor activity
same,inhibitory activity on normoxic cell growth as compared with furospinosulin-1,[3],lower inhibitory activity on normoxic cell growth
CC(C)=CCC/C(C)=C/CC/C(C)=C/CC/C=C/CCc1ccsc1 [analog-k6],selective inhibitory activity on hypoxic cell growth,[1]; [7],showed selective inhibitory activity on hypoxic cell growth
same,inhibitory activity on normoxic cell growth as compared with furospinosulin-1,[3],lower inhibitory activity on normoxic cell growth
"CC(C)=CCC/C(C)=C/CC/C(C)=C/CC/C(C)=C/CCc1ccoc1 [furospinosulin-1, reference compound]",selective inhibitory activity on hypoxic cell growth,[1]; [7],equal growth inhibitory activity against normoxic cells and hypoxic cells; also recorded: not selective for hypoxic cells
same,selective inhibitory activity on hypoxic cell growth,"[1]; concentrations of 300 μM or lower, DU145, hypoxic vs normoxic",showed selective inhibitory activity on hypoxic cell growth
same,"in vitro cancer cell growth inhibition, hypoxia selectivity",[4],inhibits in vitro cancer cell growth in a hypoxia-selective manner
same,growth inhibitory activity against normoxic cells,"[3]; at 1000 μM, DU145, 24 h, MTT",showed growth inhibitory activity even against normoxic cells
same,in vivo tumor weight as compared with the control,[5],significantly reduces in vivo tumor weight
same,hypoxia-inducible expression of IGF-2,[6],inhibition of hypoxia-inducible expression of insulin-like growth factor 2 (IGF-2)
CC(C)=CCC/C(C)=C/CC/C(C)=C/CC/C(C)=C/CC/C(C)=C/CCc1ccsc1 [analog-f9],selective inhibitory activity on hypoxic cell growth,[1]; [7],showed selective inhibitory activity on hypoxic cell growth
same,"tumor weight, % of that of the control group",[2]; 10 mg/kg oral,29%
same,"tumor weight, % of that of the control group",[2]; 25 mg/kg oral,18%
same,"weight loss, diarrhea, visual abnormalities in organs",[2],"In no administration groups, regardless of the kind of test compound, weight loss or diarrhea, or visual abnormalities in organs of the mice were observed"
same,inhibitory activity on normoxic cell growth,[3]; concentrations of 10 μM or lower,hardly inhibits normoxic cell growth
same,inhibitory activity on normoxic cell growth,[3]; concentrations of 100 μM or lower,remarkably low inhibitory activity on normoxic cell growth
same,inhibitory activity on normoxic cell growth as compared with furospinosulin-1,[3],lower inhibitory activity on normoxic cell growth

# — patent publication US9371301B2, “Prenylarene compound and use thereof” (Osaka University, priority 2010, dated 2016)
